Data on 15 compounds can be found in ChEMBL document CHEMBL1154104, “S- and C-nucleosidoquinazoline as new nucleoside analogs with potential analgesic and anti-inflammatory activity” (Eur J Med Chem, 2009).

For series [1], the system named is Rattus norvegicus. Put plainly: Antiinflammatory activity against carrageenan-induced paw edema in Sprague-Dawley rat at 70 mg/kg, po pretreated 1 hr before carrageenan challenge measured after 4 hrs by plethysmometer. The class given is functional. A general note: In the carrageenan paw model, swelling and tenderness develop within hours.
In series [2] the test system is Mus musculus. Put plainly: Analgesic activity in Swiss albino mouse assessed as inhibition of acetic acid-induced writhing response at 70 mg/kg, po pretreated 1 hr before acetic acid challenge. In kind it is functional. (An intraperitoneal irritant provokes the stretching counted in writhing tests.)
The subject of series [3] is Rattus norvegicus. Put plainly: Gastrointestinal toxicity in Wistar rat assessed as ulcerogenic induces at 200 mg/kg, po after 17 hrs. The class given is organism-based. Set-up: dose 200 mg/kg, route oral. The settings on record: in vivo.

For `CC1(C)CC(=O)C2=C(C1)N=C1NN=C(c3ccc(Cl)cc3)N1C2c1ccc(Cl)cc1` (centres undefined), the inhibition in vivo (as a rule, the change of the read-out against control, counted positive when it falls) at 70 mg/kg in series [1] came to 68%.
As to `CC(=O)OC[C@H]1O[C@@H](SC2=NC3=C(C(=O)CC(C)(C)C3)C(c3ccc(Cl)cc3)N2)[C@H](OC(C)=O)[C@@H]1OC(C)=O` (some centres undefined), the inhibition in vivo at 70 mg/kg in series [1] amounted to 76%.
For the compound `CC(=O)OC[C@H]1O[C@@H](SC2=NC3=C(C(=O)CC(C)(C)C3)C(c3ccc(Cl)cc3)N2)[C@H](OC(C)=O)[C@@H](OC(C)=O)[C@H]1OC(C)=O` (some centres undefined), in series [1], the inhibition in vivo at 70 mg/kg was found to be 76%.
Regarding `CC1(C)CC(=O)C2=C(C1)N=C1NN=C([C@@H](O)[C@@H](O)[C@H](O)CO)N1C2c1ccc(Cl)cc1` (some centres undefined), the figures for the inhibition in vivo at 70 mg/kg in series [1] and in series [2] were 82% and 56.6%, respectively. Also, the UI in series [3] is on record as 0.5.
For `CC1(C)CC(=O)C2=C(C1)N=C1NN=C([C@@H](O)[C@H](O)[C@H](O)CO)N1C2c1ccc(Cl)cc1` (some centres undefined), the inhibition in vivo at 70 mg/kg in series [1] stood at 84%; in series [2], 59.5%. Further, the UI in series [3] amounted to 0.5.
Regarding `CC1(C)CC(=O)C2=C(C1)N=C1NN=C([C@@H](O)[C@@H](O)[C@H](O)[C@H](O)CO)N1C2c1ccc(Cl)cc1` (some centres undefined), the results for the inhibition in vivo at 70 mg/kg in series [1] and in series [2] were 82% and 57%, respectively. For the same compound, the UI in series [3] came to 0.6.
With `CC1(C)CC(=O)C2=C(C1)NC(=S)NC2c1ccccc1` (centres undefined), in series [1], the inhibition in vivo at 70 mg/kg was 50%.
Turning to `CC1(C)CC(=O)C2=C(C1)N=C1NN=C([C@H](O)[C@@H](O)[C@H](O)[C@H](O)CO)N1C2c1ccc(Cl)cc1` (some centres undefined), the values for the inhibition in vivo at 70 mg/kg in series [1] and in series [2] were 86% and 73%, respectively. Besides, the UI in series [3] was determined as 0.5.
Consider `CC(=O)OC[C@H]1O[C@@H](SC2=NC3=C(C(=O)CC(C)(C)C3)C(c3ccc(Cl)cc3)N2)[C@H](OC(C)=O)[C@@H](OC(C)=O)[C@@H]1OC(C)=O` (some centres undefined), for which the inhibition in vivo at 70 mg/kg in series [1] was 75%.
On to `CC1(C)CC(=O)C2=C(C1)N=C(NN)NC2c1ccc(Cl)cc1` (centres undefined), for which the inhibition in vivo at 70 mg/kg in series [1] was 71%.
As for `CC1(C)CC(=O)C2=C(C1)NC(=S)NC2c1ccc(Cl)cc1` (centres undefined), the inhibition in vivo at 70 mg/kg in series [1] worked out at 69%.
On the same count and under the same terms, the result for `COc1ccc(C2NC(=S)NC3=C2C(=O)CC(C)(C)C3)cc1` (centres undefined) reads 71%.
As to `CC1(C)CC(=O)C2=C(C1)N=C1NN=C([C@H](O)[C@@H](O)[C@H](O)CO)N1C2c1ccc(Cl)cc1` (some centres undefined), the inhibition in vivo at 70 mg/kg in series [1] worked out at 82%; in series [2] it was 71%. For the same compound, the UI in series [3] is reported as 0.6.
`CC(C)Cc1ccc(C(C)C(=O)O)cc1` (centres undefined) [IBUPROFEN]: the inhibition in vivo at 70 mg/kg is 92% in series [1] and 83.5% in series [2]. Besides, the UI in series [3] amounted to 1.8.
The corresponding values for `CC1(C)CC(=O)C2=C(C1)N=C1NN=C([C@H](O)[C@@H](O)[C@@H](O)[C@H](O)CO)N1C2c1ccc(Cl)cc1` (some centres undefined) are 85%, 59% and 0.8.
